Source: ChEMBL document CHEMBL1201862, “PubChem BioAssay data set” (2004)
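The compound was tested at five concentrations on cells cultured in 96-well plates, with a 48-hour exposure period. Here, GI50 denotes the concentration required for 50% inhibition of growth.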 Activity calls are given as the source filed them. Cut-off read from the data, not from the text of the source: active = GI50 up to about 1.1 µM and inactive = higher.

How the values were obtained:
Test in all cases: growth of human tumour cells (NCI), 48 h
SN12C = tested on: SN12C
ACHN = tested on: ACHN
UACC-257 = tested on: UACC-257
NCI-H226 = tested on: NCI-H226
OVCAR-3 = tested on: OVCAR-3
NCI-H460 = tested on: NCI-H460
RXF 393 = tested on: RXF 393
SF-295 = tested on: SF-295
SF-268 = tested on: SF-268
HCT-15 = tested on: HCT-15
HL-60 = tested on: HL-60
NCI-H23 = tested on: NCI-H23
SK-MEL-2 = tested on: SK-MEL-2
IGROV-1 = tested on: IGROV-1
A549 = tested on: A549
KM12 = tested on: KM12
LOX IMVI = tested on: LOX IMVI
SK-MEL-28 = tested on: SK-MEL-28
SNB-75 = tested on: SNB-75

Row | SMILES | GI50 (SN12C) | GI50 (ACHN) | GI50 (UACC-257) | GI50 (NCI-H226) | GI50 (OVCAR-3) | GI50 (NCI-H460) | GI50 (RXF 393) | GI50 (SF-295) | GI50 (SF-268) | GI50 (HCT-15) [µM] | GI50 (HL-60) | GI50 (NCI-H23) | GI50 (SK-MEL-2) | GI50 (IGROV-1) | GI50 (A549) | GI50 (KM12) | GI50 (LOX IMVI) | GI50 (SK-MEL-28) | GI50 (SNB-75)
1 | CCOC(=O)c1c(N=C(S)Nc2ccc(Cl)cc2)sc2c1CCN(C)C2 | > 100 µM (inactive) | > 100 µM (inactive) | > 100 µM (inactive) | > 100 µM (inactive) | 74 µM (inactive) | 94 µM (inactive) | 32.7 µM (inactive) | > 100 µM (inactive) | > 100 µM (inactive) | 97.9 | 32.9 µM (inactive) | > 100 µM (inactive) | > 100 µM (inactive) | > 100 µM (inactive) | > 100 µM (inactive) | > 100 µM (inactive) |  |  | 
2 | COc1cc2c(c(O)c1C)C(=O)CC(c1ccccc1)O2 (configuration not stated) | 37.5 µM (inactive) | 43.7 µM (inactive) | 38.5 µM (inactive) | 18.4 µM (inactive) | 48.1 µM (inactive) | > 10 µM (inactive) |  | > 10 µM (inactive) | > 100 µM (inactive) | 66.4 |  | 22.4 µM (inactive) | 24.9 µM (inactive) | 61.9 µM (inactive) | 56.6 µM (inactive) | 62.8 µM (inactive) | > 10 µM (inactive) | > 100 µM (inactive) | 28.8 µM (inactive)
3 | Nc1ccc(Oc2ccc(C34CC5C6CC7(c8ccc(Oc9ccc(N)cc9)cc8)CC5C(C3)C(C7)C6C4)cc2)cc1 | > 100 µM (inactive) | > 100 µM (inactive) | > 100 µM (inactive) | > 100 µM (inactive) | > 100 µM (inactive) | > 100 µM (inactive) | > 100 µM (inactive) | > 100 µM (inactive) | > 100 µM (inactive) | > 100 | > 100 µM (inactive) | > 100 µM (inactive) | > 100 µM (inactive) | > 100 µM (inactive) | > 100 µM (inactive) | > 100 µM (inactive) | > 100 µM (inactive) | > 100 µM (inactive) | 
4 | O=C(O)C1=C(Cl)c2ccccc2S1(=O)=O | > 100 µM (inactive) |  | > 100 µM (inactive) |  | > 10 µM (inactive) | > 100 µM (inactive) | > 100 µM (inactive) | > 100 µM (inactive) | > 100 µM (inactive) | > 100 | > 100 µM (inactive) | > 100 µM (inactive) | > 100 µM (inactive) | > 100 µM (inactive) | > 100 µM (inactive) | > 100 µM (inactive) | > 100 µM (inactive) | > 100 µM (inactive) | > 100 µM (inactive)
5 | COc1cc(NS(C)(=O)=O)ccc1N1Cc2c[nH]c3ccc4nc(C)cc1c4c23 |  | > 100 µM (inactive) | > 100 µM (inactive) | 38.8 µM (inactive) | 31 µM (inactive) | 86.1 µM (inactive) | 32 µM (inactive) | 54.8 µM (inactive) | 22.7 µM (inactive) | > 100 | 91.4 µM (inactive) | 88.9 µM (inactive) | 74 µM (inactive) | 33.3 µM (inactive) | 62.5 µM (inactive) | > 100 µM (inactive) | > 100 µM (inactive) | 35.5 µM (inactive) | 19.7 µM (inactive)
6 | COc1ccc(/C(=N\NC(=O)C(N)=O)C(c2ccc(OC)cc2)C2(O)C(=O)Nc3c(Cl)cccc32)cc1 (configuration not stated) | > 100 µM (inactive) | > 100 µM (inactive) | > 100 µM (inactive) | > 100 µM (inactive) | > 100 µM (inactive) | > 100 µM (inactive) | > 100 µM (inactive) | > 100 µM (inactive) | > 100 µM (inactive) |  | 26.9 µM (inactive) | > 100 µM (inactive) | > 100 µM (inactive) | > 100 µM (inactive) | > 100 µM (inactive) | > 100 µM (inactive) | 58.6 µM (inactive) | > 100 µM (inactive) | > 100 µM (inactive)
7 | CC1=Nc2ccccc2SC(c2c(Cl)cccc2Cl)C1 (configuration not stated) | 1.33 µM (inactive) | 1.71 µM (inactive) | 1.57 µM (inactive) | 1.51 µM (inactive) | 0.281 µM (active) | 1.14 µM (inactive) | 1.34 µM (inactive) | 1.34 µM (inactive) | 1.01 µM (active) | 1.19 | 0.341 µM (active) | 1.32 µM (inactive) |  | 1.77 µM (inactive) | 1.88 µM (inactive) | 0.828 µM (active) | 0.277 µM (active) | 1.36 µM (inactive) | 1.91 µM (inactive)
8 | CC(=O)Oc1cc(OC(C)=O)c(OC(C)=O)c2c1CC1C(=O)C3(CCc4ccccc43)C(=O)C1C2 (configuration not stated) | 17.3 µM (inactive) | 13.4 µM (inactive) |  |  | 4.82 µM (inactive) | 13.9 µM (inactive) | 15 µM (inactive) | 4.61 µM (inactive) | > 10 µM (inactive) | 18.1 | 4.53 µM (inactive) | 18.4 µM (inactive) |  | 19.8 µM (inactive) | 19.5 µM (inactive) |  | 6.67 µM (inactive) | 18.2 µM (inactive) | 0.912 µM (active)
